According to patent US20200216439A1, “HETERO-1,5,6,7-TETRAHYDRO-4H-INDOL-4-ONES” (BAYER PHARMA AKTIENGESELLSCHAFT, priority 2015, published 2020):

Target: T1, catalytic domain of human Bub1 (amino acids 704-1085) (Homo sapiens, UniProt O43683)
T1 construct: catalytic domain of human Bub1 (amino acids 704-1085); His6 (N); made in house; host or cells: Hi5 insect cells
Test: Bub1 kinase assay (TR-FRET)
Format: biochemical
Conditions: TR-FRET; ATP 10 μM, peptide substrate 1 μM; 60 min at 22° C.; average or median if tested more than once; read-out: Inhibition of Bub1 kinase IC50
Description: Bub1-inhibitory activities of compounds described in the present invention were quantified using a time-resolved fluorescence energy transfer (TR-FRET) kinase assay which measures phosphorylation of the synthetic peptide Biotin-Ahx-VLLPKKSFAEPG (C-terminus in amide form), purchased from e.g. Biosyntan (Berlin, Germany) by the (recombinant) catalytic domain of human Bub1 (amino acids 704-1085), expressed in Hi5 insect cells with an N-terminal His6-tag and purified by affinity—(Ni-NTA) and size exclusion chromatography.
In a typical assay 11 different concentrations of each compound (0.1 nM, 0.33 nM, 1.1 nM, 3.8 nM, 13 nM, 44 nM, 0.15 μM, 0.51 μM, 1.7 μM, 5.9 μM and 20 μM) were tested in duplicate within the same microtiter plate. To this end, 100-fold concentrated compound solutions (in DMSO) were previously prepared by serial dilution (1:3.4) of 2 mM stocks in a clear low volume 384-well source microtiter plate (Greiner Bio-One, Frickenhausen, Germany), from which 50 nl of compounds were transferred into a black low volume test microtiter plate from the same supplier. Subsequently, 2 μL of Bub1 (the final concentration of Bub1 was adjusted depending on the activity of the enzyme lot in order to be within the linear dynamic range of the assay: typically ˜200 ng/mL were used) in aqueous assay buffer [50 mM Tris/HCl pH 7.5, 10 mM magnesium chloride (MgCl2), 200 mM potassium chloride (KCl), 1.0 mM dithiothreitol (DTT), 0.1 mM sodium ortho-vanadate, 1% (v/v) glycerol, 0.01% (w/v) bovine serum albumine (BSA), 0.005% (v/v) Trition X-100 (Sigma), 1× Complete EDTA-free protease inhibitor mixture (Roche)] were added to the compounds in the test plate and the mixture was incubated for 15 min at 22° C. to allow pre-equilibration of the putative enzyme-inhibitor complexes before the start of the kinase reaction, which was initiated by the addition of 3 μL 1.67-fold concentrated solution (in assay buffer) of adenosine-tri-phosphate (ATP, 10 μM final concentration) and peptide substrate (1 μM final concentration). The resulting mixture (5 μL final volume) was incubated at 22° C. during 60 min., and the reaction was stopped by the addition of 5 μL of an aqueous EDTA-solution (50 mM EDTA, in 100 mM HEPES pH 7.5 and 0.2% (w/v) bovine serum albumin) which also contained the TR-FRET detection reagents (0.2 μM streptavidin-XL665 [Cisbio Bioassays, Codolet, France] and 1 nM anti-phospho-Serine antibody [Merck Millipore, cat. #35-002] and 0.4 nM LANCE EU-W1024 labeled anti-mouse IgG antibody [Perkin-Elmer, product no. AD0077, alternatively a Terbium-cryptate-labeled anti-mouse IgG antibody from Cisbio Bioassays can be used]). The stopped reaction mixture was further incubated 1 h at 22° C. in order to allow the formation of complexes between peptides and detection reagents. Subsequently, the amount of product was evaluated by measurement of the resonance energy transfer from the Eu-chelate-antibody complex recognizing the Phosphoserine residue to the streptavidin-XL665 bound to the biotin moiety of the peptide. To this end, the fluorescence emissions at 620 nm and 665 nm after excitation at 330-350 nm were measured in a TR-FRET plate reader, e.g. a Rubystar or Pherastar (both from BMG Labtechnologies, Offenburg, Germany) or a Viewlux (Perkin-Elmer) and the ratio of the emissions (665 nm/[…]) was taken as indicator for the amount of phosphorylated substrate. The data were normalised using two sets of control wells for high—(=enzyme reaction without inhibitor=0%=Minimum inhibition) and low—(=all assay components without enzyme=100%=Maximum inhibition) Bub1 activity. IC50 values were calculated by fitting the normalized inhibition data to a 4-parameter logistic equation (Minimum, Maximum, IC50, Hill; Y=Max+(Min−Max)/(1+(X/IC50)Hill)).

T1 sequence (O43683 704-1085): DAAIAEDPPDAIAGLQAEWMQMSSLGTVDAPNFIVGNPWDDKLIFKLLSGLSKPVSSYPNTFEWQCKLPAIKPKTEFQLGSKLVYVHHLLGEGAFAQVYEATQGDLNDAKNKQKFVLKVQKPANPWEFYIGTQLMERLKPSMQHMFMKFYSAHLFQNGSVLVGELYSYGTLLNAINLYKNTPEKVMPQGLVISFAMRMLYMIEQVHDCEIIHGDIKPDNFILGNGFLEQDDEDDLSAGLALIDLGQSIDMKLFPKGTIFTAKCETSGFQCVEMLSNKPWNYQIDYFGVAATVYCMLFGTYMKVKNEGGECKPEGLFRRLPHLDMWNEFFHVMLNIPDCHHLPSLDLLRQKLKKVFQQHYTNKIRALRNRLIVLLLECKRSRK

Row | Compound | IC50
1 | CC(C)(C)OC(=O)N1CC(=O)c2c([nH]c(-c3ccncc3)c2Nc2ccccc2)C1 [Example 3, tert-Butyl 4-oxo-3-(phenylamino)-2-(pyridin-4-yl)-1,4,5,7-tetrahydro-6H-pyrrolo[2,3-c]pyridine-6-carboxylate] | 10 nM
2 | O=C1CSCc2[nH]c(-c3ccncc3)c(Nc3ccccc3)c21 [Example 4, 3-(phenylamino)-2-(pyridin-4-yl)-1,7-dihydrothiopyrano[3,4-b]pyrrol-4(5H)-one] | 19 nM
3 | O=C1CN(C(=O)C2CC2)Cc2[nH]c(-c3ccncc3)c(Nc3ccccc3)c21 [Example 5, 6-(Cyclopropylcarbonyl)-3-(phenylamino)-2-(pyridin-4-yl)-1,5,6,7-tetrahydro-4H-pyrrolo[2,3-c]pyridin-4-one] | 5 nM
4 | O=C1COCc2[nH]c(-c3ccncc3)c(Nc3ccccc3)c21 [Example 6, 3-(phenylamino)-2-(pyridin-4-yl)-1,7-dihydropyrano[3,4-b]pyrrol-4(5H)-one] | 42 nM
5 | CC(=O)N1CC(=O)c2c([nH]c(-c3ccncc3)c2Nc2ccccc2)C1 [Example 7, 6-Acetyl-3-(phenylamino)-2-(pyridin-4-yl)-1,5,6,7-tetrahydro-4H-pyrrolo[2,3-c]pyridin-4-one] | 4 nM
6 | CCC(=O)N1CC(=O)c2c([nH]c(-c3ccncc3)c2Nc2ccccc2)C1 [Example 8, 3-(phenylamino)-6-propanoyl-2-(pyridin-4-yl)-1,5,6,7-tetrahydro-4H-pyrrolo[2,3-c]pyridin-4-one] | 4 nM
7 | CC(C)(C)C(=O)N1CC(=O)c2c([nH]c(-c3ccncc3)c2Nc2ccccc2)C1 [Example 9, 6-(2,2-Dimethylpropanoyl)-3-(phenylamino)-2-(pyridin-4-yl)-1,5,6,7-tetrahydro-4H-pyrrolo[2,3-c]pyridin-4-one] | 4 nM
8 | CCNC(=O)N1CC(=O)c2c([nH]c(-c3ccncc3)c2Nc2ccccc2)C1 [Example 10, N-Ethyl-4-oxo-3-(phenylamino)-2-(pyridin-4-yl)-1,4,5,7-tetrahydro-6H-pyrrolo[2,3-c]pyridine-6-carboxamide] | 6 nM
9 | CC(C)(C)OC(=O)N1CC(=O)c2c([nH]c(-c3ccncc3F)c2Nc2ccccc2)C1 [Example 11, tert-Butyl 2-(3-fluoropyridin-4-yl)-4-oxo-3-(phenylamino)-1,4,5,7-tetrahydro-6H-pyrrolo[2,3-c]pyridine-6-carboxylate] | 8 nM
10 | Cc1nccc(-c2[nH]c3c(c2Nc2ccccc2)C(=O)CN(C(=O)OC(C)(C)C)C3)n1 [Example 12, tert-Butyl 2-(2-methylpyrimidin-4-yl)-4-oxo-3-(phenylamino)-1,4,5,7-tetrahydro-6H-pyrrolo[2,3-c]pyridine-6-carboxylate] | 102 nM
11 | CC(C)(C)OC(=O)N1CC(=O)c2c([nH]c(-c3ccnc(N)c3)c2Nc2ccccc2)C1 [Example 13, tert-Butyl 2-(2-aminopyridin-4-yl)-4-oxo-3-(phenylamino)-1,4,5,7-tetrahydro-6H-pyrrolo[2,3-c]pyridine-6-carboxylate] | 40 nM
12 | O=C1CNCc2[nH]c(-c3ccncc3)c(Nc3ccccc3)c21 [Example 14] | 47 nM
13 | Cc1nccc(-c2[nH]c3c(c2Nc2ccccc2)C(=O)COC3)n1 [Example 15, 2-(2-Methylpyrimidin-4-yl)-3-(phenylamino)-1,7-dihydropyrano[3,4-b]pyrrol-4(5H)-one] | 1200 nM
14 | Cc1nccc(-c2[nH]c3c(c2Nc2ccccc2)C(=O)CNC3)n1 [Example 16, 2-(2-Methylpyrimidin-4-yl)-3-(phenylamino)-1,5,6,7-tetrahydro-4H-pyrrolo[2,3-c]pyridin-4-one] | 949 nM
15 | CC(C)C(=O)N1CC(=O)c2c([nH]c(-c3ccncc3)c2Nc2ccccc2)C1 [Example 17] | 6 nM
16 | COC(=O)N1CC(=O)c2c([nH]c(-c3ccncc3)c2Nc2ccccc2)C1 [Example 18, Methyl 4-oxo-3-(phenylamino)-2-(pyridin-4-yl)-1,4,5,7-tetrahydro-6H-pyrrolo[2,3-c]pyridine-6-carboxylate] | 6 nM
17 | CS(=O)(=O)N1CC(=O)c2c([nH]c(-c3ccncc3)c2Nc2ccccc2)C1 [Example 19, 6-(Methylsulfonyl)-3-(phenylamino)-2-(pyridin-4-yl)-1,5,6,7-tetrahydro-4H-pyrrolo[2,3-c]pyridin-4-one] | 8 nM
18 | O=C1C[S+]([O-])Cc2[nH]c(-c3ccncc3)c(Nc3ccccc3)c21 (stereo not shown) [Example 20, 3-(phenylamino)-2-(pyridin-4-yl)-1,7-dihydrothiopyrano[3,4-b]pyrrol-4(5H)-one 6-oxide] | 152 nM
19 | Nc1cc(-c2[nH]c3c(c2Nc2ccccc2)C(=O)CNC3)ccn1 [Example 21, 2-(2-Aminopyridin-4-yl)-3-(phenylamino)-1,5,6,7-tetrahydro-4H-pyrrolo[2,3-c]pyridin-4-one] | 794 nM
20 | Nc1cc(-c2[nH]c3c(c2Nc2ccccc2)C(=O)COC3)ccn1 [Example 22, 2-(2-Aminopyridin-4-yl)-3-(phenylamino)-1,7-dihydropyrano[3,4-b]pyrrol-4(5H)-one] | 503 nM
21 | CC(=O)Nc1cc(-c2[nH]c3c(c2Nc2ccccc2)C(=O)CN(C(=O)OC(C)(C)C)C3)ccn1 [Example 23, tert-Butyl 2-[2-(acetylamino)pyridin-4-yl]4-oxo-3-(phenylamino)-1,4,5,7-tetrahydro-6H-pyrrolo[2,3-c]pyridine-6-carboxylate] | 1660 nM
22 | CC(=O)Nc1cc(-c2[nH]c3c(c2Nc2ccccc2)C(=O)CNC3)ccn1 [Example 24, N-{4-[4-Oxo-3-(phenylamino)-4,5,6,7-tetrahydro-1H-pyrrolo[2,3-c]pyridin-2-yl]pyridin-2-yl}acetamide] | 154 nM
23 | CCNC(=O)N1CC(=O)c2c([nH]c(-c3ccnc(C)n3)c2Nc2ccccc2)C1 [Example 25, N-Ethyl-2-(2-methylpyrimidin-4-yl)-4-oxo-3-(phenylamino)-1,4,5,7-tetrahydro-6H-pyrrolo[2,3-c]pyridine-6-carboxamide] | 254 nM
24 | CC(=O)N1CC(=O)c2c([nH]c(-c3ccnc(C)n3)c2Nc2ccccc2)C1 [Example 26, 6-Acetyl-2-(2-methylpyrimidin-4-yl)-3-(phenylamino)-1,5,6,7-tetrahydro-4H-pyrrolo[2,3-c]pyridin-4-one] | 97 nM
25 | COC(=O)N1CC(=O)c2c([nH]c(-c3ccnc(C)n3)c2Nc2ccccc2)C1 [Example 27, Methyl 2-(2-methylpyrimidin-4-yl)-4-oxo-3-(phenylamino)-1,4,5,7-tetrahydro-6H-pyrrolo[2,3-c]pyridine-6-carboxylate] | 59 nM
26 | CCNC(=O)N1CC(=O)c2c([nH]c(-c3ccnc(NC(C)=O)c3)c2Nc2ccccc2)C1 [Example 28] | 13 nM
27 | Cc1nccc(-c2[nH]c3c(c2Nc2ccccc2)C(=O)CN(S(C)(=O)=O)C3)n1 [Example 29, 2-(2-Methylpyrimidin-4-yl)-6-(methylsulfonyl)-3-(phenylamino)-1,5,6,7-tetrahydro-4H-pyrrolo[2,3-c]pyridin-4-one] | 24 nM
28 | CC(=O)Nc1cc(-c2[nH]c3c(c2Nc2ccccc2)C(=O)CN(C(=O)C2CC2)C3)ccn1 [Example 30, N-{4-[6-(Cyclopropylcarbonyl)-4-oxo-3-(phenylamino)-4,5,6,7-tetrahydro-1H-pyrrolo[2,3-c]pyridin-2-yl]pyridin-2-yl}acetamide] | 7 nM
